Data: patent US20240209001A1, “HETEROCYCLIC DERIVATIVES AS JANUS KINASE INHIBITORS” (CHIESI FARMACEUTICI S.P. A., priority 2021, published 2024)

How the values were obtained:
[1] = system: IL-2 induced phosphorylation of STAT5 (JAK1/JAK3 activity) in human peripheral blood mononuclear cells (PBMCs); assay: Cell based assay PBMC (IL-2 stimulated pSTAT5); settings: 0.5 h, rh IL-2, 30 min incubation, pSTAT5 ELISA, read-out: Cell Based assay PBMC (IL-2 stimulated pSTAT5), data displayed as pIC50 (converted)
Procedure: In addition to enzymatic potency, the effects of the inhibitors against JAK1/JAK3 activity in a cellular assay was characterized against IL-2 induced phosphorylation of STAT5 level in human peripheral blood mononuclear cells (PBMCs).
PBMC have been isolated from human healthy volunteers. Cells were seeded in wells and treated with compounds and rh IL-2. After 30 min incubation cells were lysed and pSTAT5 determined by PathScan phospho-stat5 (Tyr694) ELISA (Cell signaling). Inhibitors were tested at 11 consecutive 5-fold dilutions starting from 30 μM (30 μM-[…]) in duplicate. Calculation of IC50 data, curves and QC analysis were made using Excel tools and GraphPadPrism software. QC criteria parameters: Z′≥0.35, Hill Slope range 0.5 to 5, S:B>2.

[2] = biological target: T1, JAK 1 (Homo sapiens (Human), UniProt P23458); assay: Biochemical potency JAK1, TR-FRET LANCE Ultra kinase assay (examples 1a-10a); settings: ATP corresponding to Km
T1 sequence (P23458 whole entry): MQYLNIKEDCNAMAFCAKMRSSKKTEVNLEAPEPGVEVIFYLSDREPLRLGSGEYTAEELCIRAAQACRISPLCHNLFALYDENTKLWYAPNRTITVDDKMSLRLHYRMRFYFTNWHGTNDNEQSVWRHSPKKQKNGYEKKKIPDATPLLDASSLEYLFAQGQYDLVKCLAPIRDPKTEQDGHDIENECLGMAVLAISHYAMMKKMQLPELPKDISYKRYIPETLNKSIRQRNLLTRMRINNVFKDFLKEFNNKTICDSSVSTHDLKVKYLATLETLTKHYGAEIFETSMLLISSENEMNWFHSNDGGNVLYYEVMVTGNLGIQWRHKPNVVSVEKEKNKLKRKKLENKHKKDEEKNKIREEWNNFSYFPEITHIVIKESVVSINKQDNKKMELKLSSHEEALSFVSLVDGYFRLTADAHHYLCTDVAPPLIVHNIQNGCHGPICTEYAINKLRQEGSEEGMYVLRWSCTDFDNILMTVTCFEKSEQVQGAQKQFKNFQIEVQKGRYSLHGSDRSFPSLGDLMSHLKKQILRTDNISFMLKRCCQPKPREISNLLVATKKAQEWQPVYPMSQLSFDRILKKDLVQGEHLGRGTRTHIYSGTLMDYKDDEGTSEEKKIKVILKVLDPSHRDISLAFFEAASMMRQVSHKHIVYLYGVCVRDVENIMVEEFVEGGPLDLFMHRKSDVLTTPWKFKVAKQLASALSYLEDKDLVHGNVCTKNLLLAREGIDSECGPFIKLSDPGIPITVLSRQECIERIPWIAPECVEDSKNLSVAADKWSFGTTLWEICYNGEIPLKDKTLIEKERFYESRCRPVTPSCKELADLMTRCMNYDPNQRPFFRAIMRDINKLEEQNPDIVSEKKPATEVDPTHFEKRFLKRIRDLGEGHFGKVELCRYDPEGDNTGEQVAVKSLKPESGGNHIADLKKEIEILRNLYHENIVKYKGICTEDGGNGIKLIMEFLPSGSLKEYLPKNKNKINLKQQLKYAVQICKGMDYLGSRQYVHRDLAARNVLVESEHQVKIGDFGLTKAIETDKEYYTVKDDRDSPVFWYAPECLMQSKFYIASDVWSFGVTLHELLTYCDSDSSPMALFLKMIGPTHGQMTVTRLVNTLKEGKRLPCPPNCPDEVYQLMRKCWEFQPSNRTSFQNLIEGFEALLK
Text: Pharmacological Activity of the Compounds of the Invention (1a-10a).
The objective of this study was to assess the activity of novel JAK inhibitors measuring the capability of compounds to inhibit JAK1 kinase activity in a biochemical time-resolved fluorescence resonance energy transfer (TR-FRET) LANCE assay. In LANCE Ultra kinase assay in the presence of JAK1 kinase and ATP (corresponding to Km), the ULight peptide substrate (LANCE Ulight-JAK-1 (Tyr1023) Peptide, Perkin Elmer, TRF0121) was phosphorylated. It was then captured by a Eu-anti-phospho-substrate antibody (LANCE Eu-W1024 Anti-phosphotyrosine (PT66), Perkin Elmer, AD0069), which brought the Eu-chelate donor and ULight acceptor dyes into close proximity. Upon excitation at 320 nm, the Eu-chelate transfers its energy to the ULight dye, resulting in a fluorescent light emission at 665 nm. Inhibitors were tested at 11 consecutive 5-fold dilutions starting from 30 μM (30 μM-[…]) in duplicate. Calculation of IC50 data, curves and QC analysis were made using Excel tools and GraphPadPrism software. QC criteria parameters: Z′≥0.5, Hill Slope range 0.5 to 5, S:B>2.

[3] = biological target: JAK 3 (Homo sapiens (Human), UniProt P52333); assay: Biochemical potency on JAK3, TR-FRET LANCE Ultra kinase assay (compounds 1-92); settings: ATP at Km, read-out: JAK3 inhibitory activity (pIC50 class) (converted)
Chain of JAK 3 (P52333 whole entry): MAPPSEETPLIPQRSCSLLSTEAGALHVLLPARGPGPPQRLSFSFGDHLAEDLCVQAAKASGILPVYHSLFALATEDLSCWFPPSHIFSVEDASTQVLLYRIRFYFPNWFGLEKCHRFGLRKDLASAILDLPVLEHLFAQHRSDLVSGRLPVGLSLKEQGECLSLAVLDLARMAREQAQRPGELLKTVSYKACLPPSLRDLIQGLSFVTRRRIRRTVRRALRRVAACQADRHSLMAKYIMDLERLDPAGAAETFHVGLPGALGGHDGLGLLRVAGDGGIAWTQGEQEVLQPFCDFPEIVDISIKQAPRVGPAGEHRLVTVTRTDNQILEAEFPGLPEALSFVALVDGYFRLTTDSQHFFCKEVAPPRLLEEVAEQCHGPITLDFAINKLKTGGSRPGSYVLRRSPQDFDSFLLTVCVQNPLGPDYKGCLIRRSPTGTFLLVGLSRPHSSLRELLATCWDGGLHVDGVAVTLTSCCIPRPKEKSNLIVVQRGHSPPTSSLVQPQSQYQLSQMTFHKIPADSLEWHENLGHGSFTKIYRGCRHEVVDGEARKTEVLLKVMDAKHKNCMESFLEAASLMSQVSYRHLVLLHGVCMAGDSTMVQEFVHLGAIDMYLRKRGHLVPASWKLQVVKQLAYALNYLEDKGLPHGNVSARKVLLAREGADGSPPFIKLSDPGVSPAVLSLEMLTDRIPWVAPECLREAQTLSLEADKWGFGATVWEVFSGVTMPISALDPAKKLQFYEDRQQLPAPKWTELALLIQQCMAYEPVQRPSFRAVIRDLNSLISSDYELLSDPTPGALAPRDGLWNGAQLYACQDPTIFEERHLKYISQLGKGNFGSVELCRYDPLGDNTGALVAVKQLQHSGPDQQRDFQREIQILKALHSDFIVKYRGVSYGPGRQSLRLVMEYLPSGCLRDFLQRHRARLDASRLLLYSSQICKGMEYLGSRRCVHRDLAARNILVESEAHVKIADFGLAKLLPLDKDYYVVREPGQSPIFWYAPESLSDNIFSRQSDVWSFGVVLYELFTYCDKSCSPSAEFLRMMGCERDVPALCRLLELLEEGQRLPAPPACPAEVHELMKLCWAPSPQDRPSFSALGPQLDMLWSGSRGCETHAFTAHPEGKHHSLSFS
Summary of the method: (§1)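 TR-FRET (LANCE Ultra) phosphorylation of ULight-JAK-1 peptide, ATP at Km: JAK1/JAK2/JAK3/TYK2 peptide 30/50/20/10 nM, ATP 20/0.7/0.2/12 μM, enzyme 0.15/0.083/0.025/0.144 ng/μL. 11-point 5-fold series from 20 μM; 1.5 h RT, EDTA stop, Eu-anti-pTyr detection 1 h; IC50 by variable-slope fit.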

[4] = biological target: T1, JAK 1; assay: Biochemical potency on JAK1, TR-FRET LANCE Ultra kinase assay (compounds 1-92); settings: ATP at Km, read-out: JAK1 inhibitory activity (pIC50 class) (converted)
Summary of the method: as §1

[5] = biological target: JAK 2 (Homo sapiens (Human), UniProt O60674); assay: Biochemical potency on JAK2, TR-FRET LANCE Ultra kinase assay (compounds 1-92); settings: ATP at Km, read-out: JAK2 inhibitory activity (pIC50 class) (converted)
Chain of JAK 2 (O60674 whole entry): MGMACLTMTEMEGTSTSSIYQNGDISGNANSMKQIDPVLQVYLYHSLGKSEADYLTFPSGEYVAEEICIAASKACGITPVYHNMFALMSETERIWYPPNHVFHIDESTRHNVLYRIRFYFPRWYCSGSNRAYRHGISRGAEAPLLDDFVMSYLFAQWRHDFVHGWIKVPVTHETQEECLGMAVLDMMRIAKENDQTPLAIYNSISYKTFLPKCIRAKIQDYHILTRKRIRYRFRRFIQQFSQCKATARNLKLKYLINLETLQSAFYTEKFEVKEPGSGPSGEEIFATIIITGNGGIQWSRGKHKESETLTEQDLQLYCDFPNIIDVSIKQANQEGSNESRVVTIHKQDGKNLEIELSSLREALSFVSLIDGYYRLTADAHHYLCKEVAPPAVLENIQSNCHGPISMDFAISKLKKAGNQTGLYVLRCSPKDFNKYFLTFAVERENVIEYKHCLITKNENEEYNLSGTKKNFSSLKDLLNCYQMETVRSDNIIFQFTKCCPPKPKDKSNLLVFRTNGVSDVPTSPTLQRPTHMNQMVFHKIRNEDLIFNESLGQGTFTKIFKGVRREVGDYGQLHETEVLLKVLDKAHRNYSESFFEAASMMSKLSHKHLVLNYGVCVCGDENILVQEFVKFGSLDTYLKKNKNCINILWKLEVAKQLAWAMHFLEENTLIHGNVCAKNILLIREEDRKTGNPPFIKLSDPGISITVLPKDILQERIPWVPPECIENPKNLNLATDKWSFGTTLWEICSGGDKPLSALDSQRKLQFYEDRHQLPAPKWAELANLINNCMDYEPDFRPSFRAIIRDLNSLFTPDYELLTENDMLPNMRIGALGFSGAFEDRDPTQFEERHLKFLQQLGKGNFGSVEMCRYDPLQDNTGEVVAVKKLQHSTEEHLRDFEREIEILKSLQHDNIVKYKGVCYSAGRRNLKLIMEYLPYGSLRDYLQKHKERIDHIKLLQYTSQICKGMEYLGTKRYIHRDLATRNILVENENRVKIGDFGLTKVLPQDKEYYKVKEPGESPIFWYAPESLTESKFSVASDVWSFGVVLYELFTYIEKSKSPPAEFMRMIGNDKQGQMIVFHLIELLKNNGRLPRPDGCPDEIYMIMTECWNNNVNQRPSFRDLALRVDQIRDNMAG
Summary of the method: as §1

[6] = biological target: TYK2 (Homo sapiens (Human), UniProt P29597); assay: Biochemical potency on Tyk2, TR-FRET LANCE Ultra kinase assay (compounds 1-92); settings: ATP at Km, read-out: Tyk2 inhibitory activity (pIC50 class) (converted)
Chain of TYK2 (P29597 whole entry): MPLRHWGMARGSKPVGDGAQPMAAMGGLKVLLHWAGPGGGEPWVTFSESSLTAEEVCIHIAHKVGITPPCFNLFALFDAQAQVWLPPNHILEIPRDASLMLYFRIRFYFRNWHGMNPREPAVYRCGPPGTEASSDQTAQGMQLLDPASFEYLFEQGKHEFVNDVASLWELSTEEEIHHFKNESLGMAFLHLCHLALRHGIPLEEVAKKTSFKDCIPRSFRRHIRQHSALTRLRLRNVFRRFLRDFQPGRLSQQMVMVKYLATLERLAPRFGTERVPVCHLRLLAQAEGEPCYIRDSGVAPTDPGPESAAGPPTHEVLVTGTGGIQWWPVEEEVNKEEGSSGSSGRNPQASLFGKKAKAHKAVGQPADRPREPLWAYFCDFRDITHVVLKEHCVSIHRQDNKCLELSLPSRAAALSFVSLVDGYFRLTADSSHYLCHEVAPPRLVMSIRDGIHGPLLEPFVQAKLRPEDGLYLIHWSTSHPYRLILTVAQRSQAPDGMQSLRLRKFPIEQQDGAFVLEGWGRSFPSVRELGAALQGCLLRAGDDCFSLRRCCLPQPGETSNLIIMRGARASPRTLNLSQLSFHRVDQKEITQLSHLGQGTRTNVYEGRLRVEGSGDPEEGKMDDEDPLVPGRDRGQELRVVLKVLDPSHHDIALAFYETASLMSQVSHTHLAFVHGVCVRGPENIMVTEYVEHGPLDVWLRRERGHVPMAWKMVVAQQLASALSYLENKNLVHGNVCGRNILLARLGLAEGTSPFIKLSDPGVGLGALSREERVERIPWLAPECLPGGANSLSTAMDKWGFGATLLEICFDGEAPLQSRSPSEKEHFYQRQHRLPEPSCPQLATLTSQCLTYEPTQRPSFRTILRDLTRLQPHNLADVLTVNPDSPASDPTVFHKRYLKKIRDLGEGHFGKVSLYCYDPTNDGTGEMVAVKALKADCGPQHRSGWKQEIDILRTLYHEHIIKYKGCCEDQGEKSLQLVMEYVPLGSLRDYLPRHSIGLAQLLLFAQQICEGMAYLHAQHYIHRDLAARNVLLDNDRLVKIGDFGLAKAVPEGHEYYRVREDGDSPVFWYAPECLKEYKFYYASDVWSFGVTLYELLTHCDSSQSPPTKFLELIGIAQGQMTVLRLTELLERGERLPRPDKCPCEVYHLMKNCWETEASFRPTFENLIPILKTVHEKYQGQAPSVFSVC
Summary of the method: as §1

SMILES	Biochemical Potency JAK 1 (pIC50) [2]	IC50 [3] [nM]	IC50 [4] [nM]	IC50 [5] [nM]	IC50 [6] [nM]	IC50 [1] [nM]
CN(C)C(=O)Cn1nc(-c2cc(Cl)ccc2OC(F)F)c2cc(-c3cnn4cccnc34)cnc21 [Example 2a, 2-(3-(5-chloro-2-(difluoromethoxy)phenyl)-5-(pyrazolo[1,5-a]pyrimidin-3-yl)-1H-pyrazolo[3,4-b]pyridin-1-yl)-N,N-dimethylacetamide]	7.3	–	–	–	–	631
Cc1nn(-c2cc(Cl)ccc2OC(F)F)c2cc(-c3cnn4cccnc34)ncc12 [Example 7a, 1-(5-chloro-2-(difluoromethoxy)phenyl)-3-methyl-6-(pyrazolo[1,5-a]pyrimidin-3-yl)-1H-pyrazolo[4,3-c]pyridine]	8.5	–	–	–	–	39.8
Cc1nn(-c2cc(Cl)ccc2OC(F)F)c2cc(-c3cnc4cccnn34)ncc12 [Example 6a, 1-(5-chloro-2-(difluoromethoxy)phenyl)-6-(imidazo[1,2-b]pyridazin-3-yl)-3-methyl-1H-pyrazolo[4,3-c]pyridine]	8.4	–	–	–	–	–
COC(=O)c1nn(-c2cc(Cl)ccc2OC(F)F)c2cc(-c3cnn4cccnc34)cnc12 [Example 3a, methyl 1-(5-chloro-2-(difluoromethoxy)phenyl)-6-(pyrazolo[1,5-a]pyrimidin-3-yl)-1H-pyrazolo[4,3-b]pyridine-3-carboxylate]	8.1	–	–	–	–	–
COc1cc(NS(=O)(=O)CC2CCCO2)ccc1-n1nc(C)c2cnc(-c3cnn4cccnc34)cc21 (stereo not shown) [Example 2, N-(3-methoxy-4-(3-methyl-6-(pyrazolo[1,5-a]pyrimidin-3-yl)-1H-pyrazolo[4,3-c]pyridin-1-yl)phenyl)-1-(tetrahydrofuran-2-yl)methanesulfonamide]	–	5.01 to 50.1	5.01 to 50.1	≤ 5.01	5.01 to 50.1	–
COc1cc(NS(C)(=O)=O)ccc1-n1nc(NCCO)c2cnc(-c3cnn4cccnc34)cc21 [Example 26, N-(4-(3-((2-hydroxyethyl)amino)-6-(pyrazolo[1,5-a]pyrimidin-3-yl)-1H-pyrazolo[4,3-c]pyridin-1-yl)-3-methoxyphenyl)methanesulfonamide]	–	≤ 5.01	≤ 5.01	≤ 5.01	5.01 to 50.1	–
CNC(=O)c1ccc(-n2nc(C)c3cnc(-c4cnn5cccnc45)cc32)c(OC)c1 [Example 19, 3-methoxy-N-methyl-4-(3-methyl-6-(pyrazolo[1,5-a]pyrimidin-3-yl)-1H-pyrazolo[4,3-c]pyridin-1-yl)benzamide]	–	> 50.1	> 50.1	> 50.1	> 50.1	–
COc1cc(NS(C)(=O)=O)ccc1-n1nc(NCCN2CCOCC2)c2cnc(-c3cnn4cccnc34)cc21 [Example 24, N-(3-methoxy-4-(3-((2-morpholinoethyl)amino)-6-(pyrazolo[1,5-a]pyrimidin-3-yl)-1H-pyrazolo[4,3-c]pyridin-1-yl)phenyl)methanesulfonamide]	–	≤ 5.01	≤ 5.01	≤ 5.01	5.01 to 50.1	–
CNc1cc(OC)c(-n2nc(C)c3cnc(-c4cnn5cccnc45)cc32)cn1 [Example 16, 4-methoxy-N-methyl-5-(3-methyl-6-(pyrazolo[1,5-a]pyrimidin-3-yl)-1H-pyrazolo[4,3-c]pyridin-1-yl)pyridin-2-amine]	–	5.01 to 50.1	5.01 to 50.1	5.01 to 50.1	> 50.1	–

Second part, led by results:

Biochemical Potency JAK 1 (pIC50) [2]	IC50 [3] [nM]	IC50 [4] [nM]	IC50 [5] [nM]	IC50 [6] [nM]	SMILES	IC50 [1] [nM]
–	5.01 to 50.1	> 50.1	5.01 to 50.1	> 50.1	COc1cc(CNC(=O)Nc2ccccc2)ccc1-n1nc(C)c2cnc(-c3cnn4cccnc34)cc21 [Example 72, 1-(3-methoxy-4-(3-methyl-6-(pyrazolo[1,5-a]pyrimidin-3-yl)-1H-pyrazolo[4,3-c]pyridin-1-yl)benzyl)-3-phenylurea]	–
–	≤ 5.01	≤ 5.01	≤ 5.01	> 50.1	COc1cc(C(C)NS(C)(=O)=O)ccc1-n1nc(C)c2cnc(-c3cnn4cccnc34)cc21 (stereo not shown) [Example 62, N-(1-(3-methoxy-4-(3-methyl-6-(pyrazolo[1,5-a]pyrimidin-3-yl)-1H-pyrazolo[4,3-c]pyridin-1-yl)phenyl)ethyl)methanesulfonamide]	–
–	> 50.1	> 50.1	> 50.1	> 50.1	COc1cc(CNC(C)=O)ccc1-n1nc(C)c2cnc(-c3cnn4cccnc34)cc21 [Example 70, N-(3-methoxy-4-(3-methyl-6-(pyrazolo[1,5-a]pyrimidin-3-yl)-1H-pyrazolo[4,3-c]pyridin-1-yl)benzyl)acetamide]	–
–	5.01 to 50.1	5.01 to 50.1	5.01 to 50.1	> 50.1	COc1cc(NC(=O)c2ccccc2)ccc1-n1nc(C)c2cnc(-c3cnn4cccnc34)cc21 [Example 74, N-(3-methoxy-4-(3-methyl-6-(pyrazolo[1,5-a]pyrimidin-3-yl)-1H-pyrazolo[4,3-c]pyridin-1-yl)phenyl)benzamide]	–
–	5.01 to 50.1	≤ 5.01	5.01 to 50.1	5.01 to 50.1	COc1cc(NS(=O)(=O)C2CC2)ccc1-n1nc(NCCN2CCOCC2)c2cnc(-c3cnn4cccnc34)cc21 [Example 34, N-(3-methoxy-4-(3-((2-morpholinoethyl)amino)-6-(pyrazolo[1,5-a]pyrimidin-3-yl)-1H-pyrazolo[4,3-c]pyridin-1-yl)phenyl)cyclopropanesulfonamide]	–
–	5.01 to 50.1	> 50.1	5.01 to 50.1	> 50.1	COC(=O)NCc1ccc(-n2nc(C)c3cnc(-c4cnn5cccnc45)cc32)c(OC)c1 [Example 69, methyl (3-methoxy-4-(3-methyl-6-(pyrazolo[1,5-a]pyrimidin-3-yl)-1H-pyrazolo[4,3-c]pyridin-1-yl)benzyl)carbamate]	–
–	5.01 to 50.1	5.01 to 50.1	5.01 to 50.1	> 50.1	COc1cc(NC(=O)c2ccccc2)ccc1-n1nc(NCCN(C)C)c2cnc(-c3cnn4cccnc34)cc21 [Example 75, N-(4-(3-((2-(dimethylamino)ethyl)amino)-6-(pyrazolo[1,5-a]pyrimidin-3-yl)-1H-pyrazolo[4,3-c]pyridin-1-yl)-3-methoxyphenyl)benzamide]	–
–	5.01 to 50.1	≤ 5.01	5.01 to 50.1	5.01 to 50.1	COc1cc(NS(=O)(=O)CC(F)F)ccc1-n1nc(C)c2cnc(-c3cnn4cccnc34)cc21 [Example 73, 2,2-difluoro-N-(3-methoxy-4-(3-methyl-6-(pyrazolo[1,5-a]pyrimidin-3-yl)-1H-pyrazolo[4,3-c]pyridin-1-yl)phenyl)ethane-1-sulfonamide]	–
–	5.01 to 50.1	5.01 to 50.1	5.01 to 50.1	5.01 to 50.1	COc1cc(NS(=O)(=O)C2CC2)ccc1-n1nc(NCCCN2CCOCC2)c2cnc(-c3cnn4cccnc34)cc21 [Example 33, N-(3-methoxy-4-(3-((3-morpholinopropyl)amino)-6-(pyrazolo[1,5-a]pyrimidin-3-yl)-1H-pyrazolo[4,3-c]pyridin-1-yl)phenyl)cyclopropanesulfonamide]	–
–	> 50.1	> 50.1	> 50.1	> 50.1	COc1cc(CN)ccc1-n1nc(C)c2cnc(-c3cnn4cccnc34)cc21 [Example 67, (3-methoxy-4-(3-methyl-6-(pyrazolo[1,5-a]pyrimidin-3-yl)-1H-pyrazolo[4,3-c]pyridin-1-yl)phenyl)methanamine]	–
–	≤ 5.01	≤ 5.01	≤ 5.01	5.01 to 50.1	COc1cc(CNS(=O)(=O)C2CC2)ccc1-n1nc(C)c2cnc(-c3cnn4cccnc34)cc21 [Example 64, N-(3-methoxy-4-(3-methyl-6-(pyrazolo[1,5-a]pyrimidin-3-yl)-1H-pyrazolo[4,3-c]pyridin-1-yl)benzyl)cyclopropanesulfonamide]	–
